Changes are numbered by the printed parent chain.
Experiments:
Format in all cases: cell-based
Conditions in all cases: 30 C; extract in 50 mM Tris-HCl pH 7.5; described as competitive inhibitor
HsHK1 [1] = biological target: T1, HsHK1 (Homo sapiens, UniProt P19367, G679A)
T1 sequence (P19367 1-917 G679A): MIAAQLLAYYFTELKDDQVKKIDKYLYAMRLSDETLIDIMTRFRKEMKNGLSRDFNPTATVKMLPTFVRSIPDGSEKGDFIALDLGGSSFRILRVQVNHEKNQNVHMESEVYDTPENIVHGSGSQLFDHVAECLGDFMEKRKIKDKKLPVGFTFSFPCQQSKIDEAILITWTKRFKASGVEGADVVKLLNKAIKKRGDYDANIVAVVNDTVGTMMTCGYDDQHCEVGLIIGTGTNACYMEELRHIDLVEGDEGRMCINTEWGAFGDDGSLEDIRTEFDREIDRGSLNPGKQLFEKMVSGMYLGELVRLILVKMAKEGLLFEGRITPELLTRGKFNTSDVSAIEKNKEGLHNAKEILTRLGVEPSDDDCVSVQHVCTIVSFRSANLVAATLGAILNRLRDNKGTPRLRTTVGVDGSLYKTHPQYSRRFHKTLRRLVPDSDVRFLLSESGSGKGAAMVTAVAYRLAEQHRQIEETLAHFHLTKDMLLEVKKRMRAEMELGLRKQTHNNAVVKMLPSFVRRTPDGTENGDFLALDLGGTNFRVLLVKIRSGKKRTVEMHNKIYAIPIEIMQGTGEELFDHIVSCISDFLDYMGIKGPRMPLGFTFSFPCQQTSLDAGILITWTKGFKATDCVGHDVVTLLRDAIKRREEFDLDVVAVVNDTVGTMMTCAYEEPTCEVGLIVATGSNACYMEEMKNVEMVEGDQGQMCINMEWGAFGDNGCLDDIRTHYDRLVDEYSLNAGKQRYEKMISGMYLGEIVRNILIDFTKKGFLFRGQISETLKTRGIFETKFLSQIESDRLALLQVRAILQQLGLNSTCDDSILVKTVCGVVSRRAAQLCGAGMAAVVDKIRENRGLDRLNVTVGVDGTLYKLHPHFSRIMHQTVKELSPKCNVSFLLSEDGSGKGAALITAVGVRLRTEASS

HsHK1 [2] = biological target: T2, HsHK1 (Homo sapiens, UniProt P19367)
T2 sequence (P19367 1-917): T1 sequence (P19367 1-917 G679A) with A679G

HsHK2 [3] = biological target: T3, HsHK2 (Homo sapiens, UniProt P52789)
T3 sequence (P52789 1-917): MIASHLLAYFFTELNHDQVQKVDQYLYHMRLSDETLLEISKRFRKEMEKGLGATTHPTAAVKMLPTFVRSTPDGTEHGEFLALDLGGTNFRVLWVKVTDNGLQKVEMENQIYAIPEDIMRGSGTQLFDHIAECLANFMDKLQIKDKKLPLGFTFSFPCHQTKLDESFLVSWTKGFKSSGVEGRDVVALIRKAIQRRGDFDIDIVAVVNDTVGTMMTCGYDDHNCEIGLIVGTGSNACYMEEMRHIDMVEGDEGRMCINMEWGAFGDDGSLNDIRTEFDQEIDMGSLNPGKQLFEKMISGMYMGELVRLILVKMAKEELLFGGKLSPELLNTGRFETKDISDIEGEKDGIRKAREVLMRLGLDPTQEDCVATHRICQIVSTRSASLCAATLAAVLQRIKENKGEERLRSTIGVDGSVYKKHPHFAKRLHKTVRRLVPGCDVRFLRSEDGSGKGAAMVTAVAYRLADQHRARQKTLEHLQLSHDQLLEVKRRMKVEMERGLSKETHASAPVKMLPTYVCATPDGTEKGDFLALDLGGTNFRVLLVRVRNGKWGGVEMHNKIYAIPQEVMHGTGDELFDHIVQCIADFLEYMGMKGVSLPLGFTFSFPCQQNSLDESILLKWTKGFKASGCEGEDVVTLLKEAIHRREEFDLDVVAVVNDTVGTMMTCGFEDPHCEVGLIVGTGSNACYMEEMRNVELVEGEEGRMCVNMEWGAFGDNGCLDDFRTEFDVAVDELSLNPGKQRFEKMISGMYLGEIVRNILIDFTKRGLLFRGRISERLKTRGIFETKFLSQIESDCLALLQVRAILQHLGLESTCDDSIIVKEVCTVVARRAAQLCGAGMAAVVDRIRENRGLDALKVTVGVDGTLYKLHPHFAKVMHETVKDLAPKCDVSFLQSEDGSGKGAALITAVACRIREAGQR

HsHK2 [4] = biological target: T4, HsHK2 (Homo sapiens, UniProt P52789, L776F)
T4 sequence (P52789 1-917 L776F): T3 sequence (P52789 1-917) with L776F

IC50 (HsHK1 [1]): 320 ± 100 µM
IC50 (HsHK1 [2]): 38 ± 15 µM
IC50 (HsHK2 [3]): 87 ± 21 µM
IC50 (HsHK2 [4]): 260 ± 200 µM
SMILES: O=P(O)(O)OC[C@H]1OC(O)[C@H](O)[C@@H](O)[C@@H]1O (stereo partly shown) [glucose-6-phosphate]

Reference: paper doi:10.1101/2021.09.28.462164v1 (biorxiv, 2021)
